# Activity calls are given as the source filed them.
# Experiments:
# Major prion protein = Major prion protein (Homo sapiens, UniProt P04156); type: functional, cell-based
# [1] = NIH-3T3 fibroblast cytotoxicity, dose response, cytotoxicity control, cell-based, fluorescence, Alamar Blue, secondary assay (AID 2327); type: functional;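 also: NIH-3T3 mouse fibroblasts cultured with fluconazole at 8 µg/mL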
# [2] = C. albicans growth with fluconazole, confirmation, fluorescence, retest (AID 2467); type: functional, cell-based
# [3] = molecular target: T1, Short transient receptor potential channel 4 (Mus musculus, UniProt Q9QUQ5); test: mouse TRPC4 channel activators, dose response, cell-based, HEK293 TRPC4/mu-opioid, Fluo-4 calcium (AID 434937); type: functional
# T1 sequence (Q9QUQ5 whole entry): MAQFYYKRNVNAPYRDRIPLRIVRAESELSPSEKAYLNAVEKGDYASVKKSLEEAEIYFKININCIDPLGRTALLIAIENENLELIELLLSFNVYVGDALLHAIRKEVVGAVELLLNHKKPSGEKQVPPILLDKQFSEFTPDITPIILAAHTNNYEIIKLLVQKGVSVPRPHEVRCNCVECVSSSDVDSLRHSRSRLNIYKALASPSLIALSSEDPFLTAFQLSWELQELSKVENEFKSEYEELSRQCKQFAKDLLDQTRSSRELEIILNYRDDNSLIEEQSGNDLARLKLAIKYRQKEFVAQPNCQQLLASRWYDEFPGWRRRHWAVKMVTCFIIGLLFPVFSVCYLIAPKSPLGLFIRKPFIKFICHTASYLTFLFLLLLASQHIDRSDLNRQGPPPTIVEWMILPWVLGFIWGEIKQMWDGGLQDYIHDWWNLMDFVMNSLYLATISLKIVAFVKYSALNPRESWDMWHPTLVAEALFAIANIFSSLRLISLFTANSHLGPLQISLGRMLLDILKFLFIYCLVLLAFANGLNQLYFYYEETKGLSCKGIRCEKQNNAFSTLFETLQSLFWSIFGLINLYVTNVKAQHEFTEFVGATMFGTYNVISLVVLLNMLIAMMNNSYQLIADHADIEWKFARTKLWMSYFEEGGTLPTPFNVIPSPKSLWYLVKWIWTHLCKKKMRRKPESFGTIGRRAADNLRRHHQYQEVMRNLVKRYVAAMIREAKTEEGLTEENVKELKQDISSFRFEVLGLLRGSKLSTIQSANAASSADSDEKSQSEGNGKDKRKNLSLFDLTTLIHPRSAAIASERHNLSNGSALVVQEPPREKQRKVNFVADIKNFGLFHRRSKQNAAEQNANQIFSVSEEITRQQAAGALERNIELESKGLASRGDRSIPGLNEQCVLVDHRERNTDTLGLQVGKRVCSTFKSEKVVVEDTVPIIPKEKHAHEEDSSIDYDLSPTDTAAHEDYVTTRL
# [4] = molecular target: T2, High affinity choline transporter 1 (Homo sapiens, UniProt Q9GZV3); test: CHT inhibitors, dose response, cell-based, 5-point CRC, membrane potential dye (AID 504840); type: functional
# T2 sequence (Q9GZV3 whole entry): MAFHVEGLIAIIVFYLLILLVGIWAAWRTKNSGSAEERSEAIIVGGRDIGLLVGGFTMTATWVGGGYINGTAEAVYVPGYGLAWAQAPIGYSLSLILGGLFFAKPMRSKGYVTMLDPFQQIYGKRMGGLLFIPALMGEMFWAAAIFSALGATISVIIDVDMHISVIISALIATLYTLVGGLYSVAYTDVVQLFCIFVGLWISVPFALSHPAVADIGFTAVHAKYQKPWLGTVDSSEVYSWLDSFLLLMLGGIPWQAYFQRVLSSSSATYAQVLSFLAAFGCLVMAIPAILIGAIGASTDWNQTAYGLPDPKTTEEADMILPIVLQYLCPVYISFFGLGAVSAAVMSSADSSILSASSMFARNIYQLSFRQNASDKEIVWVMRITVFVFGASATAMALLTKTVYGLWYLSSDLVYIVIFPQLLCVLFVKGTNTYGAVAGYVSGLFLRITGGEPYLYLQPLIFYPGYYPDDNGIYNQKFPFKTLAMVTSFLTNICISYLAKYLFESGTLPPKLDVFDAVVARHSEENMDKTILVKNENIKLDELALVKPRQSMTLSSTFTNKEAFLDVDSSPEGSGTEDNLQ
# [5] = human group III sPLA2 inhibitors, dose response, biochemical, QFRET, IC50 (AID 743457);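 also: green fluorescence rise as the enzyme cleaves BODIPY PC-A2 in liposomes; potency for inhibition of the enzyme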
# [6] = THP-1 cell cytotoxicity, dose response, cytotoxicity control for non-replicating M. tuberculosis project (AID 489025); type: functional
# [7] = HepG2 cell cytotoxicity, dose response, cytotoxicity control for non-replicating M. tuberculosis project (AID 489018); type: functional; conditions: Mycobacterium tuberculosis
# [8] = Vero E6 cell cytotoxicity, dose response, cytotoxicity control for non-replicating M. tuberculosis project, secondary assay (AID 492998); type: functional, VeroE6; conditions: Vero C1008
# INS1 = test: beta cell apoptosis inhibitors, cytokine rescue, dose response, luminescence, retest (AID 449756); type: functional, cell-based; conditions: Rattus norvegicus;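 also: cell death triggered by IL-1 beta plus TNF-alpha plus IFN-gamma mixture; protective hits raise ATP signal compared with cytokine alone wells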
# [9] = HEK293T cytotoxicity, dose response, cytotoxicity control for miR-122 modulator project, cell-based, inhibitor set, cherry-pick, set 2 (AID 720697); type: functional
# [10] = HEK293T cytotoxicity, dose response, cytotoxicity control for miR-122 modulator project, cell-based, activator set, cherry-pick (AID 720690); type: functional;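 also: HEK293T human cells scored for general mammalian cytotoxicity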
# Paired box protein Pax-8 = Paired box protein Pax-8 (Homo sapiens, UniProt Q06710); test: inhibitors of PAX8-driven TPO luciferase reporter, dose response, RMG-I cells, cherry-pick (AID 687027); type: functional, cell-based;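 also: luciferase reporter driven by Pax8 target thyroperoxidase promoter measured by SteadyGlo luminescence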
# [11] = IOSE-T80 ovarian epithelial cell cytotoxicity, dose response, cytotoxicity control for PAX8 inhibitor project, plate reader, dry powder samples (AID 743045); type: functional, cell-based
# [12] = NIH:OVCAR-3 ovarian cancer cell cytotoxicity, dose response, PAX8 inhibitor project, plate reader, dry powder samples (AID 743044); type: functional, cell-based
# [13] = IGROV1 ovarian cancer cell cytotoxicity, dose response, PAX8 inhibitor project, plate reader, dry powder samples (AID 743043); type: functional, cell-based; conditions: IGROV-1
# [14] = cytotoxicity in OVCAR8 ovarian cancer cells, dose response, PAX8 project, cell-based, plate reader, dry powder samples (AID 743197); type: functional; conditions: OVCAR-8
# [15] = cytotoxicity in HeLa cells, dose response, cytotoxicity control, cell-based, plate reader, dry powder (AID 651946); type: functional
# [16] = CTGF mRNA reduction under YAP1 overexpression, dose response, mechanism study for YAP1 pathway inhibitor project, DLD1 cells, RT-qPCR, cherry-pick (AID 1053127); type: functional, cell-based; conditions: DLD-1
# [17] = YAP1 pathway inhibition via CTGF transcript levels, dose response, cell-based, DLD1 colon cancer, RT-qPCR, cherry-pick (AID 1053122); type: functional; conditions: Cancer cell lines
# [18] = HEK293 cell cytotoxicity, dose response, cytotoxicity control, cherry-picks, set 5 (AID 1053117); type: functional, cell-based
structure (smiles),measurement,setting,value
COc1cccc(NC(=O)CCSc2ccc3ccccc3n2)c1,IC50,Major prion protein,3.97 µM (active)
same,IC50,cells,> 138 µM (inactive)
O=C(NNC(=S)NC(=O)C12CC3CC(CC(C3)C1)C2)c1ccncc1,EC50,[1],26.4 µM (active)
same,EC50,[2],3.2 µM (active)
same,EC50,[3],4.22 µM (active)
same,IC50,[4],28.8 µM (active)
same,IC50,[5],> 122 µM (inactive)
N#CC1=C(N)Oc2c(ccc3cccnc23)C1c1ccccc1 (configuration not stated),CC50,[6],4.84 µM (active)
same,CC50,[7],> 20 µM (active)
same,CC50,[8],5.56 µM (active)
same,AC50,INS1,4.54 µM (active)
same,AC50,[9],2.47 µM (active)
same,AC50,[10],42.5 µM (active)
C[C@H](CO)N1C[C@H](C)[C@H](CN(C)Cc2ccc(C(=O)Nc3ccccc3N)cc2)Oc2ccc(N(C)C)cc2C1=O,AC50,Paired box protein Pax-8,10.5 µM (active)
same,AC50,[11],56.3 µM (active)
same,AC50,[12],43.9 µM (active)
same,AC50,[13],23.4 µM (active)
same,AC50,[14],33.7 µM (active)
COc1ccccc1CSc1nnc(-c2ccccc2)o1,AC50,[15],> 52 µM (inactive)
CO[C@@H](CN(C)S(=O)(=O)c1ccc(C)cc1)[C@H](C)CN([C@@H](C)CO)S(=O)(=O)c1cccc(Cl)c1,AC50,[16],17.7 µM (active)
same,AC50,[17],16.4 µM (active)
C[C@@H]1CN([C@H](C)CO)C(=O)c2cc(NC(=O)C3CCCCC3)ccc2O[C@H]1CN(C)Cc1ccc(-c2ccccc2)cc1,AC50,[18],> 52 µM (inactive)

# From ChEMBL document CHEMBL1201862, “PubChem BioAssay data set” (2004)
